The record followed here is US11911394B2, “Compound and method for the prevention of transmission of influenza virus” (Hoffmann-La Roche Inc., priority 2019, dated 2024).

The structures appear in SMILES notation. Like-named read-outs stand apart in the source and are kept apart here.

A short description of series [1]: Example 2 antiviral pharmacokinetic analysis, endpoint donor plasma. The series is classed as in vivo. To be noted: ferret, sc, 4 mg/kg, 4 mg/kg s.c., read-out: baloxavir in plasma ±SD. The procedure: The active form baloxavir acid (S-033447, hereafter BXA) and pro-drug oseltamivir phosphate (hereafter OST) was kindly provided by Shionogi & Co., Ltd., Japan. The vehicle for BXA delivery was methyl cellulose (Sigma-Aldrich, Australia) in 0.5 w/v % aqueous solution prepared with sterile water (hereafter MC solution). BXA in suspension with MC solution (1 mg/mL) was prepared using an agate mortar and pestle, and was delivered to reversibly anaesthetised animals in a single treatment consisting of 4 subcutaneous injections at 4 locations on the dorsal region (total dose 4 mg/kg per animal). Animals in the placebo group were dosed identically using MC solution (1 mL/kg) alone. OST doses (10 mg/mL) were prepared in sugar solution (1 g/mL) and delivered bis in die (8 hr interval) to non-sedated ferrets by the oral route (total dose 10 mg/kg/day).
Endpoint BXA and placebo-treated donor blood samples were collected in heparinised tubes, and plasma isolated by centrifugation. Plasma samples were stored at −80° C. until transport to analytical facilities at Shionogi & Co., Ltd.
Experiment 1: Antiviral treatment for all donors commenced at 1 DPI, and naïve recipient ferrets were co-housed immediately following treatment. Body weight and temperature were monitored daily from all animals. Daily nasal wash samples were collected 1 mL of PBS from 1 DPI to 3 DPI for donor animals, and 1 day post exposure (DPE) to 10 DPE for recipient animals. Donors were sacrificed at 3 DPI (2 DPE), and blood was collected from BXA- and placebo-treated ferrets by cardiac puncture. Recipients were sacrificed at 10 DPE.
Experiment 2: Antiviral treatment commenced at 1 DPI, and recipient co-housing was delayed until 24 hr following treatment (2 DPI). Body weight and temperature were monitored daily from all animals. […]
Experiment 3: Antiviral treatment commenced at 2 DPI, and recipients were co-housed immediately afterwards. Body weight and temperature were monitored daily from all animals. […]

Series [2] in a line: Example 5 pharmacokinetic analysis in ferret, plasma concentration by LC-MS/MS. The series is classed as in vivo. The method, then:
Outbred female and ferrets 28 months old and weighing between 650-802 g were obtained from Japan SLC, Inc. Identification was conducted by labeling sequential number in front of each cage. Animals were monitored at least once daily for their clinical observations, and had ad libitum access to pellet feed (LabDiet High Density Ferret Diet, Lab Supply, USA) and water. Ferrets at endpoint were euthanized by exsanguination under anesthesia by inhalation with isoflurane (Pfizer). Ferret studies were performed in Shionogi Pharmaceutical Research Center, Shionogi & Co., Ltd. (Osaka, Japan), according to the animal study protocol which was approved by the Institutional Animal Care and Use Committee in Shionogi.
The active form baloxavir acid (S-033447, hereafter BXA) was provided by Test Substance Control Personnel, Shionogi & Co., Ltd., Japan. The vehicle for BXA delivery was methyl cellulose (Fuji-Film Wako, Japan) in 0.5 w/v % aqueous solution prepared with sterile water (hereafter MC solution). BXA in suspension with MC solution (1 mg/mL) was prepared using an agate mortar and pestle, and was delivered to reversibly anaesthetised animals in a single treatment consisting of 4 subcutaneous injections at 4 locations on the dorsal region (total dose 4 mg/kg per animal). […]
The plasma concentration of BXA was determined by LC-MS/MS, consisting of LC-20A system (Shimadzu Corporation, Japan) and API 5000 (AB SCIEX, USA). […]
Precursor/product transitions (m/z) of 484/247 and 490/247 were monitored for BXA and internal standard, BXA-racemate-d4^18O, respectively. […]
The plasma concentrations of BXA for each individual ferret were calculated by Analyst software (AB SCIEX, USA). The mean value and standard deviation were also calculated using individual data by Microsoft Excel (Microsoft Co., USA).

Consider `O=C1c2c(O)c(=O)ccn2N([C@@H]2c3ccccc3SCc3c2ccc(F)c3F)[C@@H]2COCCN12` [baloxavir, baloxavir acid], for which the concentration at 48 h in series [1] (Example 2 Experiment 1, 48 hours post treatment) was 10.2 ± 2.8 ng/mL. Also, the concentration at 72 h in series [1] (Example 2 Experiment 2, 72 hr post treatment) turned out to be 12.5 ± 2.4 ng/mL; in series [1] (Example 2 Experiment 3, 72 hr post treatment (so in the source)) it was 24.5 ± 4.03 ng/mL. Besides, the concentration at 168 h in series [2] (plasma, subcutaneous, single s.c. suspension 4 mg/kg, 168 hours postdose, read-out: mean plasma concentration at last sampling point) is 9.08 ng/mL. The “time at which mean plasma concentration reached the maximum” value in series [2] (single s.c. suspension 4 mg/kg) stood at 3 hours postdose. In addition, the “mean plasma concentration, maximum” value in series [2] (single s.c. suspension 4 mg/kg (4 locations, 1 mg/kg per location), 3 hours postdose) turned out to be 26.1 ng/mL.
